How the values were obtained:
BT-474 = test: Cell viability assay (CellTiter Glo), BT-474; format: cell-based; settings: Homo sapiens; BT-474 cells, 72 hours, CellTiter Glo; read-out: IC50, cell viability, BT-474
[1] = molecular target: T1, phosphorylated ERBB2 (pERBB2) (Homo sapiens, UniProt P04626); test: Detection of phosphorylated ERBB2 (pERBB2) by ELISA in BT-474 cells; format: cell-based; settings: four hours incubation
T1 construct: endogenous in cells; host or cells: BT-474
Method in brief: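 BT-474 cells (2.0×10^4/well) treated 4 h at 37 °C, 5% CO2 with compounds in four-fold dilutions from 10 µM to 0.01 nM. Lysate pERBB2 measured by ELISA with TMB read at 450 nm; % relative activity scaled between no-cell wells and 0.1% DMSO-treated cells.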

Ba/F3 ERBB2-G776VC = Ba/F3 ERBB2-G776VC (Homo sapiens, UniProt P04626, DELINS776-776VC, cells depend on it); test: Cell viability assay, Ba/F3 ERBB2-G776VC; format: cell-based, mouse; settings: 72 hours, CellTiter Glo, read-out: IC50, cell viability, Ba/F3 ERBB2-G776VC
Ba/F3 ERBB2-G776VC, sequence (P04626 with tags, fused parts or gaps DELINS776-776VC): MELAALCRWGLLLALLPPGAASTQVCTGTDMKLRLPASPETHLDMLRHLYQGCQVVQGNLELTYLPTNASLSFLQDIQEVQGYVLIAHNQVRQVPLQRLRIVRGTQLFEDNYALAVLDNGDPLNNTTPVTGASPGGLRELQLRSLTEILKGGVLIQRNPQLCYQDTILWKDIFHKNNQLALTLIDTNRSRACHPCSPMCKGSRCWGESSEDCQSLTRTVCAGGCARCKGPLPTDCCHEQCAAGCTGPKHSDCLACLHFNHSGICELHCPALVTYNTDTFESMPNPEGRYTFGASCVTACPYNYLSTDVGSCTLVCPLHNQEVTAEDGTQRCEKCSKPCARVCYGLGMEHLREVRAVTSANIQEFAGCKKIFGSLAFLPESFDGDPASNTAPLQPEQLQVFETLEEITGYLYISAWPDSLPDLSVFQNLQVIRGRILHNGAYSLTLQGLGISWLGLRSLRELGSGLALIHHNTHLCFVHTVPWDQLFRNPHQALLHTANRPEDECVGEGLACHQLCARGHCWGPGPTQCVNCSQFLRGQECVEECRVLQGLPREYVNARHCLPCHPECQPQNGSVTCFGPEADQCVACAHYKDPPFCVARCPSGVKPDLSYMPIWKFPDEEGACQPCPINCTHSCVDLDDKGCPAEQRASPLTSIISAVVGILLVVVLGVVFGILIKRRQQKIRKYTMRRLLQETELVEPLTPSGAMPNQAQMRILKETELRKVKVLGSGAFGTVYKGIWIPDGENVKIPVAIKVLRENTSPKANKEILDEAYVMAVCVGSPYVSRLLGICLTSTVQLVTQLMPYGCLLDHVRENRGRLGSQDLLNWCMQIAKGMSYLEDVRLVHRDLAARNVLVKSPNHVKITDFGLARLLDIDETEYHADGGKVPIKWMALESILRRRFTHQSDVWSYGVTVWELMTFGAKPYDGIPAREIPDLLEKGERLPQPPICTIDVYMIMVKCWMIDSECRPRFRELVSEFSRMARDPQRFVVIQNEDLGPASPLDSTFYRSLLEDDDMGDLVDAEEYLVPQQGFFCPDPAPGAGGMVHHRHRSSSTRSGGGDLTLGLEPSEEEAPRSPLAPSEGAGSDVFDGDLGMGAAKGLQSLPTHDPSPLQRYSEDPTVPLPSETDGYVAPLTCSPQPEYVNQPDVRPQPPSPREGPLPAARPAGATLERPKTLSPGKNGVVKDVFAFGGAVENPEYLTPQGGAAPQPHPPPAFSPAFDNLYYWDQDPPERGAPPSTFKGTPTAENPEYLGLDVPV
Description: (§1) Cells were treated with compounds, and cell viability was measured as a metric of kinase inhibition.
(§2) The Ba/F3 cell line is IL-3-dependent mouse cell line derived from the C3H mouse strain. Ba/F3 cell lines were engineered to express human ERBB2 or EGFR kinases, rendering the cells IL-3 independent. The lines were generated via retroviral transduction utilizing a Moloney murine leukemia virus (MMLV) promoter, and constructs are stably integrated into the cell genome. The sequences of the ERBB2 and EGFR genes used were NCBI Reference Sequences NM_004448.3 and NM_005228.3, respectively.
(§3) Similarly, Ba/F3 cell lines engineered to express EGFR, ERBB2, or ERBB2 mutants were grown, harvested, counted and seeded at 3000 cells per well in 96-well plates. A subset of wells contained media only (low control, “LC”).
(§4) Table B1 provides the growth media and number of cells seeded per well for the each cell line.
(§5) Plates were placed in a 37° C., 5% CO2 incubator for 72 hours. Plates were then removed from the incubator and equilibrated for 15 minutes at room temperature. 40 μl of CellTiter Glo reagent (Promega) was added to measure the relative level of metabolically active cells by quantifying intracellular ATP concentrations. Plates were incubated for 30 minutes at room temperature, and luminescence was measured. Percent viability was normalized to a vehicle control only using the following formula: % viability=100×(Lumsample−LumLC)/(LumHC−Lum^LC). Graphical curves were fitted using a nonlinear regression model with a sigmoidal dose response.

Ba/F3 EGFR wt = Ba/F3 EGFR wt (Homo sapiens, UniProt P00533); test: Cell viability assay, Ba/F3 EGFR wt; format: cell-based, mouse; settings: Ba/F3 EGFR wt cells, 72 hours, CellTiter Glo; read-out: IC50, cell viability, Ba/F3 EGFR wt
Description: as §1, §2, §3, §4
(§6) Plates were placed in a 37° C., 5% CO2 incubator for 72 hours. Plates were then removed from the incubator and equilibrated for 15 minutes at room temperature. 40 μl of CellTiter Glo reagent (Promega) was added to measure the relative level of metabolically active cells by quantifying intracellular ATP concentrations. Plates were incubated for 30 minutes at room temperature, and luminescence was measured. […]

MDA-MB-175VII = test: Cell viability assay (CellTiter Glo), MDA-MB-175VII; format: cell-based; settings: Homo sapiens; MDA MB 175VII cells, 72 hours, CellTiter Glo; read-out: IC50, cell viability, MDA MB 175VII
Description: as §1, §2, §3, §4, §5

[2] = molecular target: BaF3_EGFR-H773_V774insNPH (Homo sapiens, UniProt P00533, DUP771-773, cells depend on it); test: Cell viability assay, BaF3_EGFR-H773_V774insNPH; format: cell-based, mouse; settings: 72 hours, CellTiter Glo, read-out: IC50, cell viability, BaF3_EGFR-H773_V774insNPH
BaF3_EGFR-H773_V774insNPH, sequence (P00533 with tags, fused parts or gaps DUP771-773): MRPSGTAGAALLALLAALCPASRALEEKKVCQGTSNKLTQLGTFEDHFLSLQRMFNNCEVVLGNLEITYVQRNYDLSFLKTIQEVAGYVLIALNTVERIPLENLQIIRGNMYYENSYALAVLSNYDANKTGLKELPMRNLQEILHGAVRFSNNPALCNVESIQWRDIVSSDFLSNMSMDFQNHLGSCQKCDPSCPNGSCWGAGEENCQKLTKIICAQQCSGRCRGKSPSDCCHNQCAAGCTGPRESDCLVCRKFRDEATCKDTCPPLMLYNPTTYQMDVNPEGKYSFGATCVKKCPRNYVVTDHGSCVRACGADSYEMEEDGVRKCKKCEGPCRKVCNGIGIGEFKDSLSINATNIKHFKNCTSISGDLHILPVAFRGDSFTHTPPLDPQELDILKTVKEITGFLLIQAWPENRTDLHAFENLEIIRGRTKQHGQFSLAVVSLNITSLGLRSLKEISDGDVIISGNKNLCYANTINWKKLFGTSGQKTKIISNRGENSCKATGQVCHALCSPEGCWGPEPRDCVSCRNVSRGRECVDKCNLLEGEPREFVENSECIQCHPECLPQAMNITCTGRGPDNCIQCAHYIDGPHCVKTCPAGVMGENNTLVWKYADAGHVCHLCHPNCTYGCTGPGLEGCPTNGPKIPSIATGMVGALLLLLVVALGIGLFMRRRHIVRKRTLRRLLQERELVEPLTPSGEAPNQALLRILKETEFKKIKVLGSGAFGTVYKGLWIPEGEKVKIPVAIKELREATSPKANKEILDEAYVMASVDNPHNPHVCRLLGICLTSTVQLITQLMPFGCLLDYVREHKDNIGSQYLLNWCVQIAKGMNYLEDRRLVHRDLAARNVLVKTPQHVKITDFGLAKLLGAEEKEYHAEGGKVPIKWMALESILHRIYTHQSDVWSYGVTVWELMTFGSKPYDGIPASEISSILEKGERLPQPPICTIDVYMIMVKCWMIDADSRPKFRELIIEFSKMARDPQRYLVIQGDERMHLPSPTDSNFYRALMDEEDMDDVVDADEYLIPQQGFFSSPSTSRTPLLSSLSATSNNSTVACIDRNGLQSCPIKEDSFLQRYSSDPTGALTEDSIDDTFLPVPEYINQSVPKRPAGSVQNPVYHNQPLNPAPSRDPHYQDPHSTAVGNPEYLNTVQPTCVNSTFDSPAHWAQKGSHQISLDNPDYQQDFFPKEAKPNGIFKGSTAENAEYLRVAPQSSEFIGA
Description: as §1, §2, §3, §4, §6

[3] = molecular target: BaF3-EGFR-V769_D770insASV (Homo sapiens, UniProt P00533, DUP767-769, cells depend on it); test: Cell viability assay, BaF3-EGFR-V769_D770insASV; format: cell-based, mouse; settings: 72 hours, CellTiter Glo, read-out: IC50, cell viability, BaF3-EGFR-V769_D770insASV
BaF3-EGFR-V769_D770insASV, sequence (P00533 with tags, fused parts or gaps DUP767-769): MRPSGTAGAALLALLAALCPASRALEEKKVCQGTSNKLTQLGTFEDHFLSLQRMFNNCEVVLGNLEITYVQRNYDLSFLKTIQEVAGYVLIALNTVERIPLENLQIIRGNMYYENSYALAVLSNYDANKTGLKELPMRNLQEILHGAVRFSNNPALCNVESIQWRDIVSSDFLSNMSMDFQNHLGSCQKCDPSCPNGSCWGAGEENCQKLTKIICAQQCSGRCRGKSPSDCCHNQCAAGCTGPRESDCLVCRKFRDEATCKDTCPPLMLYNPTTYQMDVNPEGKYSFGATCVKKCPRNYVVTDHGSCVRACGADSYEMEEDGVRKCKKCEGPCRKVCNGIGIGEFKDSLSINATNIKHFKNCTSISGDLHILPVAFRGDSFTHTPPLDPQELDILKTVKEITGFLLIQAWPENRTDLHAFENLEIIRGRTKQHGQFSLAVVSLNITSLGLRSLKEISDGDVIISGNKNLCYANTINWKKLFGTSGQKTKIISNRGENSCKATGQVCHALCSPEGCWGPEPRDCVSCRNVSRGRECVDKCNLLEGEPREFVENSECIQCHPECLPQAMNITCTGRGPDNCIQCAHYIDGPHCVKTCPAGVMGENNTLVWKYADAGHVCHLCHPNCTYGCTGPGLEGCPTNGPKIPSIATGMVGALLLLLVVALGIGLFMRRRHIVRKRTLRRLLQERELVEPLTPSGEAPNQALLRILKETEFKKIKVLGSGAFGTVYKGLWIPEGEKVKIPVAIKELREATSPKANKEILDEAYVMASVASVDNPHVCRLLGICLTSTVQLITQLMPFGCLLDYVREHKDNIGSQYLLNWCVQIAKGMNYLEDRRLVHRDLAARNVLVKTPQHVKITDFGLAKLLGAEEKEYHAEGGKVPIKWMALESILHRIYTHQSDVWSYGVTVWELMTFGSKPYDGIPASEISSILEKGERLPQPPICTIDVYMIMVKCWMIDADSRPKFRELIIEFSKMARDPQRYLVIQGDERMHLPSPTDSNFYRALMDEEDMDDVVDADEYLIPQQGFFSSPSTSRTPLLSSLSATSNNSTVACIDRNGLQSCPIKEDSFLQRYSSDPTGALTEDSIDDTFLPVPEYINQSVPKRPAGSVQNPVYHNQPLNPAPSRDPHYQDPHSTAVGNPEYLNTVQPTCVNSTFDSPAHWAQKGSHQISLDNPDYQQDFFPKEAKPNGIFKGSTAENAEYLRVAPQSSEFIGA
Description: as §1, §2, §3, §4, §6

[4] = molecular target: BaF3_EGFR-D770-N771insSVD (Homo sapiens, UniProt P00533, DUP768-770, cells depend on it); test: Cell viability assay, BaF3_EGFR-D770-N771insSVD; format: cell-based, mouse; settings: 72 hours, CellTiter Glo, read-out: IC50, cell viability, BaF3_EGFR-D770-N771insSVD
Description: as §1, §2, §3, §4, §6

T1 sequence (P04626 23-1255): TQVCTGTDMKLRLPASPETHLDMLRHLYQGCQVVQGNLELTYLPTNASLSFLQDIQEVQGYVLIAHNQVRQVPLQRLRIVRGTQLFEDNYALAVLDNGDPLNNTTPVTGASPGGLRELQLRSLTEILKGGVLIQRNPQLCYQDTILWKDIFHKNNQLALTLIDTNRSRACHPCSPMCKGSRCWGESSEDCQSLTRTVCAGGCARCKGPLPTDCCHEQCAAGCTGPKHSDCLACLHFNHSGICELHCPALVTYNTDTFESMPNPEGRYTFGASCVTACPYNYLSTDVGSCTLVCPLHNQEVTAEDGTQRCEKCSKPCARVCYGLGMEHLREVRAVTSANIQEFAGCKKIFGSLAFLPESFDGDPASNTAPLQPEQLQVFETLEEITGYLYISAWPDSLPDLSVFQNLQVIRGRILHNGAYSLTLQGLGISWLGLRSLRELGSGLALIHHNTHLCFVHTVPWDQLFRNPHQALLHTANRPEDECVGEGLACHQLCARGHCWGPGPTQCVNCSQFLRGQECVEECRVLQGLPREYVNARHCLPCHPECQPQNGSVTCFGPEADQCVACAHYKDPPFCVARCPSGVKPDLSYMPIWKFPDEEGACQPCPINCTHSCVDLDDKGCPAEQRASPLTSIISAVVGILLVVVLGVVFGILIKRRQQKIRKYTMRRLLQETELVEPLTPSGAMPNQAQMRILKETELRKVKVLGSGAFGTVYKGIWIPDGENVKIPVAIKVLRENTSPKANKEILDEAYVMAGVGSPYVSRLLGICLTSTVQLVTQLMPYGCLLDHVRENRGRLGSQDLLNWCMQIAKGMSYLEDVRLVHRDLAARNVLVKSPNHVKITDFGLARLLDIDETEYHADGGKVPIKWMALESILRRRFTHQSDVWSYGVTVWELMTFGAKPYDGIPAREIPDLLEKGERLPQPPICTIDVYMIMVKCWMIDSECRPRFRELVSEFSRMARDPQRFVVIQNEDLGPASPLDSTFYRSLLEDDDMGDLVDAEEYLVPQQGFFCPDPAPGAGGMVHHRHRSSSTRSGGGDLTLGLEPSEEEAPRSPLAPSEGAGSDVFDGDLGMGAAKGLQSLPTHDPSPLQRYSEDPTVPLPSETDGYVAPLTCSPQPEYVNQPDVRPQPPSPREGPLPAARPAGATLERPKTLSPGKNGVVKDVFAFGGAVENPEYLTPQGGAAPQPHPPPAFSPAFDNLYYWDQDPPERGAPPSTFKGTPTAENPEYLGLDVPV

IC50 (BT-474) [nM] | IC50 [1] [nM] | IC50 (MDA-MB-175VII) [nM] | SMILES | GI50 (Ba/F3 ERBB2-G776VC) [nM] | GI50 (Ba/F3 EGFR wt) [nM] | GI50 [2] [nM] | GI50 [3] [nM] | GI50 [4] [nM]
16.3 | 5.17 |  | C=C1CCN(c2ccc3ncnc(Nc4ccc(Oc5ccn6ccnc6c5)c(C)c4)c3c2)C1=O [Compound 4, 1-[4-[(4-[imidazo[1,2-a]pyridin-7-yloxy]-3-methylphenyl)amino]quinazolin-6-yl]-3-methylidenepyrrolidin-2-one] | 7.5 |  |  |  | 
7.45 | 7.94 | 15 | C=C1CCN(c2ccc3ncnc(Nc4ccc(Oc5ccn6ncnc6c5)c(C)c4)c3c2)C1=O [Compound 1, 1-[4-[(3-methyl-4-[[1,2,4]triazolo[1,5-a]pyridin-7-yloxy]phenyl)amino]quinazolin-6-yl]-3-methylidenepyrrolidin-2-one] | 16 | > 10000 | 9830 | 4510 | 4060

— patent publication US20240116921A1, “LACTAM (HETERO)[…] DERIVATIVES AS INHIBITORS OF ERBB2” (EnLiven Therapeutics, Inc., priority 2020, published 2024)
